Reference: patent US12208108B2, “Drug targets of delayed aging and human brain diseases” (Texas Tech University System, priority 2016, dated 2025)

Experiments:
SHSY5Y cells = test: Immunoblotting analysis of mitochondrial, synaptic proteins and Aβ; assay type: cell-based, Human
Source text: Immunoblotting analysis. To determine the effects of Aβ on mitochondrial proteins and the useful effects of DDQ at the protein level, the inventors quantified mitochondrial proteins in five independent treatments of cells with Aβ, DDQ, Aβ+DDQ and DDQ+Aβ.
DDQ reduces Aβ and Drp1 levels. To determine whether DDQ reduces Aβ and Drp1 levels, the inventors conducted immunoblotting analysis, in cells treated with DDQ, Aβ+DDQ and DDQ+Aβ.
FIG. 3 illustrates the experimental strategy of the cell culture work and including treatments. The cells were grown in a medium (1:1 DMEM and F12, 10% FBS, lx penicillin, and streptomycin) at 37° C. in a humified incubator with a 5% CO2 environment. After seeding were allowed to grow for 24-48 hrs or until 80% confluence in six-well plates and used for experiments. The inventors used five different groups of cells—(1) untreated SHSY5Y cells; (2) SHSY5Y cells treated with DDQ (250 nM final concentration) for 24 hrs; (3) SHSY5Y cells incubated with Aβ peptide 1-42 (20 uM final concentration) for 6 hrs; (4) SHSY5Y cells treated Aβ for 6 hrs+DDQ for 24 hrs and (5) SHSY5Y cells treated DDQ for 24 hrs and Aβ for 6 hrs. Half a million SHSY5Y cells were suspended per well into six-well plates. The inventors used Aβ peptide 1-42 and DDQ 250 nM in the experiments. After treatments, the inventors harvested cells, conducted experiments to measure the levels mRNA using Sybr-Green based real-time RT-PCR, proteins using immunoblotting and immunofluorescence analysis and cell viability using MTT assay. The inventors counted the number of mitochondria by electron microscopy.

[1] = molecular target: T1, interaction of Aβ with Drp1 (Homo sapiens, UniProt O00429); test: Co-immunoprecipitation of Aβ and Drp1 in SHSY5Y cells; assay type: cell-based
T1 construct: SHSY5Y cells incubated with Aβ peptide 1-42 (20 uM final concentration); Anaspec (Aβ 1-42 peptide); host or cells: SHSY5Y human neuroblastoma cells
Experimental: Co-immunoprecipitation and immunoblotting analysis using DDQ treated SHSY5Y cells+Aβ. To determine whether DDQ reduces the interaction of Aβ with Drp1 in Aβ incubated cells, the inventors performed co-immunoprecipitation analysis using the Drp1 antibody, and immunoblotting analysis using Aβ recognizing 6E10 antibody and protein lysates of DDQ pre-treated, DDQ post-treated and Aβ incubated cells.
SHSY5Y cells, mutant APPSwe/Ind cells and co-immunoprecipitation analysis. SHSY5Y cells: To determine whether Aβ interact with Drp1, the inventors used protein lysates from Aβ incubated (DDQ pre-treated, post-treated and untreated) SHSY5Y cells.
The inventors performed co-immunoprecipitation (co-IP) assays using the Dynabeads Kit for Immunoprecipitation (Invitrogen). Briefly, 50 μL of Dynabeads containing protein G was incubated with 10 μg 6E10 or 10 μg of the Drp1 antibodies (both mono- and polyclonal antibodies; Santa Cruz), with rotation, for 1 h at room temperature. The inventors used all the reagents and buffers provided in the kit. Details of antibodies used for co-IP and western blotting are given Table 5. The Dynabeads-Aβ complex was washed three times with a washing buffer and was then incubated overnight with 400 μg of protein at 4° C., with rotation. […]

[2] = Aβ + DDQ (Aβ1-42 20 μM 6 hrs, then DDQ 24 hrs) vs untreated cells
[3] = Aβ + DDQ (Aβ1-42 6 hrs, then DDQ 24 hrs) vs Aβ treated cells
[4] = DDQ 250 nM 24 hrs vs untreated cells
[5] = DDQ + Aβ (DDQ 24 hrs, then Aβ1-42 6 hrs) vs Aβ treated cells

T1 sequence (O00429 whole entry): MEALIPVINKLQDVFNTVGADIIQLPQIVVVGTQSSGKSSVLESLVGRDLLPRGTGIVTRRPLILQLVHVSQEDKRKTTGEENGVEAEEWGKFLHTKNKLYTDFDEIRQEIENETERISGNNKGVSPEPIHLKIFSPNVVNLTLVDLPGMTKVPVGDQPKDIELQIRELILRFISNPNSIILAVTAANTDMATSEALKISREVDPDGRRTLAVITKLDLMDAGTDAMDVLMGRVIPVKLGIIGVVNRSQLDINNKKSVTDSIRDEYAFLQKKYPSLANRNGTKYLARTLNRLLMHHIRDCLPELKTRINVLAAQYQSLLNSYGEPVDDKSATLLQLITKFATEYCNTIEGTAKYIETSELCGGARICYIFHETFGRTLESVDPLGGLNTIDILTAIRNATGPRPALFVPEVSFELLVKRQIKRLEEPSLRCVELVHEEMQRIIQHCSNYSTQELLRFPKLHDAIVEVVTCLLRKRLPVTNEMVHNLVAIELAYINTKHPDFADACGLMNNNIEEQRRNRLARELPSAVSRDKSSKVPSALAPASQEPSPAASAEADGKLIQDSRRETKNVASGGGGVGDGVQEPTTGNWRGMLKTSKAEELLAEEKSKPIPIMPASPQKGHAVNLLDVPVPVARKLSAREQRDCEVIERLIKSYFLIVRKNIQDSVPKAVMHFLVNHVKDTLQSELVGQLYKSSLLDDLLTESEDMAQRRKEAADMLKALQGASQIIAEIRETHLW

Compound: CCOP(=O)(OCC)C(NCCc1ccc(O)c(O)c1)c1ccnc2ccccc12 (stereo not shown) [DDQ, diethyl(3,4-dihydroxyphenethylamine)(quinolin-4-yl)methylphosphonate]
- Drp1 protein level (SHSY5Y cells; [2]): reduced
- Fis1 protein level (SHSY5Y cells; [2]): reduced
- Mfn1 protein level (SHSY5Y cells; [2]): significantly increased
- PSD95 protein level (SHSY5Y cells; [2]): significantly increased
- synaptophysin protein level (SHSY5Y cells; [2]): significantly increased
- Drp1 protein level (SHSY5Y cells; [3]): significantly reduced levels
- Mfn1 protein level (SHSY5Y cells; [3]): increased
- Mfn2 protein level (SHSY5Y cells; [3]): increased
- Nrf1 protein level (SHSY5Y cells; [3]): increased
- Nrf2 protein level (SHSY5Y cells; [3]): increased
- PSD95 protein level (SHSY5Y cells; [3]): increased
- TFAM protein level (SHSY5Y cells; [3]): increased
- synaptophysin protein level (SHSY5Y cells; [3]): increased
- 4 kDa Aβ levels (SHSY5Y cells; Aβ + DDQ (Aβ1-42 6 hrs, then DDQ 24 hrs) vs cells treated with Aβ alone): reduced levels
- Drp1 protein level (SHSY5Y cells; [4]): significantly reduced
- Fis1 protein level (SHSY5Y cells; [4]): significantly reduced
- Mfn2 protein level (SHSY5Y cells; [4]): significantly increased
- Mitochondrial biogenesis protein levels (SHSY5Y cells; [4]): significantly increased
- Drp1 protein level (SHSY5Y cells; [5]): significantly reduced levels
- Fis1 protein level (SHSY5Y cells; [5]): significantly reduced levels
- Mfn1 protein level (SHSY5Y cells; [5]): increased
- Mfn2 protein level (SHSY5Y cells; [5]): increased
- Nrf1 protein level (SHSY5Y cells; [5]): significantly increased levels
- Nrf2 protein level (SHSY5Y cells; [5]): significantly increased levels
- PSD95 protein level (SHSY5Y cells; [5]): increased
- TFAM protein level (SHSY5Y cells; [5]): significantly increased levels
- synaptophysin protein level (SHSY5Y cells; [5]): increased
- 4 kDa Aβ levels (SHSY5Y cells; DDQ + Aβ (DDQ 24 hrs, then Aβ1-42 6 hrs) vs cells treated with Aβ alone): reduced levels
- Drp1 protein level (SHSY5Y cells; DDQ + Aβ (DDQ 24 hrs, then Aβ1-42 6 hrs) vs untreated cells): Decreased levels
- interaction between Aβ and Drp1 ([1]; DDQ post-treated (Aβ + DDQ) vs Aβ incubated cells): reduced interaction
- interaction between Aβ and Drp1 ([1]; DDQ pre-treated (DDQ + Aβ) vs Aβ incubated cells): reduced interaction
